Results published in ChEMBL document CHEMBL1201862, “PubChem BioAssay data set” (2004).
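Step 1: Grow cells in 96-well plates. Step 2: Expose to compound for 48 hours at 5 concentrations. Step 3: Interpolate endpoints linearly; if unreached, use highest concentration. The concentration for 50% growth inhibition is given as GI50.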 The source made the active and inactive calls. No stated cut-off is given here; in the data, active = GI50 up to about 1.1 µM and inactive = higher.

Experiments:
Test in all cases: NCI anticancer screen, dose series, 48 h
[1] = system: U-251
[2] = system: SK-OV-3
[3] = system: CCRF-CEM
[4] = system: IGROV-1
[5] = system: HOP-92
[6] = system: SW-620
[7] = system: CAKI-1
[8] = system: HL-60
[9] = system: HOP-62
[10] = system: LOX IMVI
[11] = system: UO-31
[12] = system: Malme-3M
[13] = system: HT-29
[14] = system: SNB-75
[15] = system: SR
[16] = system: SF-539

Row | Structure (SMILES) | GI50 [1] | GI50 [2] | GI50 [3] | GI50 [4] | GI50 [5] | GI50 [6] | GI50 [7] | GI50 [8] | GI50 [9] | GI50 [10] | GI50 [11] | GI50 [12] | GI50 [13] | GI50 [14] | GI50 [15] | GI50 [16]
1 | CC(=O)c1ccc(NC(=O)COC(=O)c2cccc3c(=O)c4ccccc4[nH]c23)cc1 | 15.5 µM (inactive) | 67.8 µM (inactive) | > 100 µM (inactive) | 37.4 µM (inactive) | 25.9 µM (inactive) | 52.8 µM (inactive) | > 100 µM (inactive) | > 100 µM (inactive) | 31.5 µM (inactive) | 13.4 µM (inactive) | 96.2 µM (inactive) | 42.5 µM (inactive) | 45.5 µM (inactive) | 10.1 µM (inactive) | > 100 µM (inactive) | 8.91 µM (inactive)
2 | CC(C)(C)c1cc(C(=O)O)c(C(c2ccccc2)c2ccccc2C(=O)O)c(C(=O)O)c1 (centres undefined) | 11.3 µM (inactive) | 21.7 µM (inactive) | > 100 µM (inactive) |  |  | > 100 µM (inactive) | > 100 µM (inactive) | > 100 µM (inactive) | > 100 µM (inactive) | > 100 µM (inactive) | > 100 µM (inactive) | > 100 µM (inactive) | > 100 µM (inactive) | 21.7 µM (inactive) | > 100 µM (inactive) | > 100 µM (inactive)
3 | CCOC(=O)c1cc(/C=C/C(C)=C/C(=O)OC)n(C)c1C | > 100 µM (inactive) | > 100 µM (inactive) | 61.5 µM (inactive) | > 100 µM (inactive) | > 100 µM (inactive) | > 100 µM (inactive) | > 100 µM (inactive) | 23.9 µM (inactive) | > 100 µM (inactive) | > 100 µM (inactive) | > 100 µM (inactive) | > 100 µM (inactive) | 40 µM (inactive) |  |  | 77.8 µM (inactive)
4 | CC(C)N(C(=O)C12C3C4C1C1C2C3C41C(O)C(C)(C)C)C(C)C (centres undefined) | > 50 µM (inactive) | > 50 µM (inactive) | > 50 µM (inactive) | > 50 µM (inactive) | 34.7 µM (inactive) | > 50 µM (inactive) | > 50 µM (inactive) | > 50 µM (inactive) | > 50 µM (inactive) |  | > 50 µM (inactive) | > 50 µM (inactive) | > 50 µM (inactive) | 26.2 µM (inactive) | > 50 µM (inactive) | > 50 µM (inactive)
5 | Clc1ccc(C(c2ccc(Cl)cc2)c2ccccn2)cc1 | 17 µM (inactive) | 34.6 µM (inactive) | 21.5 µM (inactive) | 37.8 µM (inactive) | 15.8 µM (inactive) | 20.1 µM (inactive) | 23.2 µM (inactive) | 20.6 µM (inactive) |  | 16.7 µM (inactive) | 16.5 µM (inactive) | 19.1 µM (inactive) | 14.9 µM (inactive) | 44.9 µM (inactive) | 20.8 µM (inactive) | 18.7 µM (inactive)
6 | CN/N=C(\C)c1c(O)cc(C)oc1=O | > 100 µM (inactive) | > 100 µM (inactive) | > 100 µM (inactive) |  | > 100 µM (inactive) | > 100 µM (inactive) | > 100 µM (inactive) | > 100 µM (inactive) | > 100 µM (inactive) | > 100 µM (inactive) | > 100 µM (inactive) | > 100 µM (inactive) | > 100 µM (inactive) | > 100 µM (inactive) | > 100 µM (inactive) | > 100 µM (inactive)
7 | CC(=O)C=C1Nc2ccccc2N1 | > 100 µM (inactive) |  | > 100 µM (inactive) | > 100 µM (inactive) |  | > 100 µM (inactive) | > 100 µM (inactive) | > 100 µM (inactive) |  | > 100 µM (inactive) | > 100 µM (inactive) | > 100 µM (inactive) | > 100 µM (inactive) | 36.9 µM (inactive) | > 100 µM (inactive) | > 100 µM (inactive)
8 | COc1cccc(C=O)c1C(=O)c1cc(O)ccc1O | > 100 µM (inactive) | > 100 µM (inactive) | 3.91 µM (inactive) | > 44.2 µM (inactive) | 17.7 µM (inactive) | 17.1 µM (inactive) | 23.7 µM (inactive) | 9.62 µM (inactive) | > 100 µM (inactive) | 37.8 µM (inactive) | 18.5 µM (inactive) | 20.4 µM (inactive) | > 49.2 µM (inactive) | > 95.3 µM (inactive) | 0.457 µM (active) | > 100 µM (inactive)
9 | OCC1OC(NO)C(O)C(O)C1O (centres undefined) | > 100 µM (inactive) |  | > 100 µM (inactive) | > 100 µM (inactive) | > 100 µM (inactive) | > 100 µM (inactive) | > 100 µM (inactive) | > 100 µM (inactive) | > 100 µM (inactive) | > 100 µM (inactive) |  | > 100 µM (inactive) | > 100 µM (inactive) |  | > 100 µM (inactive) | > 100 µM (inactive)
10 | CC[N+](CC)(CC)Cc1cc2ccccc2n1C(=O)OC | > 100 µM (inactive) |  | > 100 µM (inactive) | > 100 µM (inactive) | > 100 µM (inactive) | > 100 µM (inactive) | > 100 µM (inactive) | > 100 µM (inactive) | > 100 µM (inactive) |  | > 100 µM (inactive) | > 100 µM (inactive) | > 100 µM (inactive) | 87.9 µM (inactive) | > 100 µM (inactive) | > 100 µM (inactive)
11 | O=C(/C=C\c1cccc2ccccc12)c1ccc(F)cc1 | 15.8 µM (inactive) | 23.5 µM (inactive) | 13.6 µM (inactive) | 15.3 µM (inactive) | 11.9 µM (inactive) | 7.52 µM (inactive) | 17.3 µM (inactive) | 20.6 µM (inactive) | 69.8 µM (inactive) |  | 16.7 µM (inactive) | 17.7 µM (inactive) | 17.3 µM (inactive) | 30.5 µM (inactive) |  | 21.5 µM (inactive)
12 | CCc1cccc(C)c1N1C(=O)C(=O)C(c2nc3ccccc3o2)C(=O)C1=O | > 100 µM (inactive) | > 100 µM (inactive) | > 100 µM (inactive) | > 100 µM (inactive) | > 100 µM (inactive) | > 100 µM (inactive) | > 100 µM (inactive) | > 100 µM (inactive) | > 100 µM (inactive) |  | > 100 µM (inactive) | > 100 µM (inactive) | > 100 µM (inactive) | 45.7 µM (inactive) | > 100 µM (inactive) | > 100 µM (inactive)
13 | COC(=O)C1CC2C=CC=CC(=O)C2(C)C1 (centres undefined) | > 100 µM (inactive) | > 100 µM (inactive) | 21.6 µM (inactive) | > 100 µM (inactive) |  | 27.2 µM (inactive) | > 100 µM (inactive) | 25.8 µM (inactive) | > 100 µM (inactive) | 53.3 µM (inactive) | > 100 µM (inactive) | 49.7 µM (inactive) | 40 µM (inactive) |  | 27.8 µM (inactive) | > 100 µM (inactive)
14 | C[Si](C)(C)CN1C(=O)c2ccccc2C1(O)c1ccccc1 (centres undefined) | > 100 µM (inactive) |  | 66.4 µM (inactive) | 99.5 µM (inactive) | 44.6 µM (inactive) | > 100 µM (inactive) | 46.1 µM (inactive) | 40.7 µM (inactive) | > 100 µM (inactive) | 49.4 µM (inactive) | 30.5 µM (inactive) | > 100 µM (inactive) | 87.9 µM (inactive) | 84.7 µM (inactive) | 83.6 µM (inactive) | > 100 µM (inactive)
15 | CC(C)NCCNC(=O)c1ccccc1Nc1c(Cl)cccc1Cl | 4.65 µM (inactive) | 14.8 µM (inactive) | 10.5 µM (inactive) | 16 µM (inactive) |  | 15.5 µM (inactive) |  | 8.71 µM (inactive) | 11.6 µM (inactive) | 7.24 µM (inactive) | 10.1 µM (inactive) |  | 4.71 µM (inactive) | 4.63 µM (inactive) | 9.06 µM (inactive) | 15.8 µM (inactive)
16 | O=C(Cn1cc(I)c(C(=O)NCC(O)CO)n1)NCC(O)CO (centres undefined) | > 100 µM (inactive) | > 100 µM (inactive) | > 100 µM (inactive) | > 100 µM (inactive) | > 100 µM (inactive) | > 100 µM (inactive) |  | > 100 µM (inactive) | > 100 µM (inactive) | > 100 µM (inactive) | > 100 µM (inactive) | > 100 µM (inactive) | > 100 µM (inactive) | > 100 µM (inactive) |  | > 100 µM (inactive)
17 | COC(=O)C(=O)C1(CCC(C)=O)c2ccccc2-c2c(C)ccc(C)c21 (centres undefined) | 41.8 µM (inactive) | 84.1 µM (inactive) | 37.1 µM (inactive) | 57.8 µM (inactive) |  | 48.4 µM (inactive) | 31.4 µM (inactive) | 10.3 µM (inactive) | 53 µM (inactive) | 36.8 µM (inactive) | 25.4 µM (inactive) | 40.4 µM (inactive) | 32.7 µM (inactive) | 53 µM (inactive) | 19.2 µM (inactive) | 
18 | CC1(C)O[C@@H](CC/C=C/CO)[C@H](CC/C=C/CO)O1 | > 100 µM (inactive) | > 100 µM (inactive) | > 100 µM (inactive) | > 100 µM (inactive) | > 100 µM (inactive) | > 100 µM (inactive) | > 100 µM (inactive) | 63.8 µM (inactive) | > 100 µM (inactive) | > 100 µM (inactive) |  | > 100 µM (inactive) | > 100 µM (inactive) | > 100 µM (inactive) | 74.6 µM (inactive) | > 100 µM (inactive)
19 | CCOC(=O)C(=O)/C=C(\C)Nc1c(NC2OCC(OC(C)=O)C(OC(C)=O)C2OC(C)=O)nc(SC)[nH]c1=O (centres undefined) | > 100 µM (inactive) | > 100 µM (inactive) | > 100 µM (inactive) | > 100 µM (inactive) | > 100 µM (inactive) | > 100 µM (inactive) | > 100 µM (inactive) | > 10 µM (inactive) | > 100 µM (inactive) | > 100 µM (inactive) | > 100 µM (inactive) | > 100 µM (inactive) | > 100 µM (inactive) | > 100 µM (inactive) | > 100 µM (inactive) | 
